Experimental data published in EP0439320A1, “Erectile dysfunction treatment” (YAMANOUCHI PHARMACEUTICAL CO. LTD., priority 1990, dated 1991).
No end group written: not given here.

What was measured:
[1] = test system: human cavernous smooth muscle strip; assay: Relaxation of isolated human cavernous smooth muscle strip contracted with noradrenaline (organ bath); parameters: species or system humans; conditions: dose 10^-7 M, contracted with noradrenaline 2 x 10^-5 M, read-out: Inhibiting effect
Method: The relaxing effect of compound (I) on isolated specimens of penis cavernous smooth muscle of pigs (smooth muscle strips obtained from slaughtered boards) and of humans was tested by the following method. The pig and humans cavernous smooth muscle specimens are placed in an organ bath, and the tension is recorded. In the case of human cavernous smooth muscle strip, the relaxatory effect was evaluated. The specimen was contracted with a noradrenaline dose of 2 x 10⁻⁵ M and was treated with compound (I) at a dose of 10⁻⁷ M. In Table 2, the result for human tissue is shown.

[2] = test system: penis cavernous smooth muscle of pigs; assay: Relaxation of isolated pig cavernous smooth muscle strip precontracted with noradrenaline (organ bath, tension recorded); conditions: for Time until prior response restored: contractile response to noradrenaline
Method: The pig and humans cavernous smooth muscle specimens are placed in an organ bath, and the tension is recorded. […] Work was also conducted with reference compounds in the porcine tissue, measuring the contractile response to noradrenaline.

[3] = test system: penis erection (tumescence) and its firmness (rigidity); assay: Tumescence and rigidity after intracorporeal injection in anesthetized monkeys; type: in vivo, monkeys (Cynogos or Vervet); conditions: 0.1 g injected into the corpus cavernosum; evaluated 5 to 120 min after injection; data only in Fig. 1
Method: Tumescence and rigidity after intracorporeal injection of compound (I) were evaluated for monkeys.
Anesthetized monkeys (Cynogos or Vervet), 4-6 kg body weight, were used for the test.
The animal was anesthetized with ketamine and 0.1 g of compound (I) was injected in solution into the corpus cavernosum with a tourniquet at the base of the penis; the animal was then under observation and changes in tumescence and rigidity were noted and plotted. The tourniquet was removed 5 min after the injection.
Manual and visual evaluation of tumescence and rigidity was made 5, 10, 15, 20, 30, 60 and 120 min after injection.
The activity of compound (I) (dose: 0.1 g) on penis erection (tumescence) and firmness (rigidity) in the anesthetized monkeys is shown in Fig. 1.

[4] = Acute toxicity test in rats; conditions: rat, in vivo, F344 rats, single dose, 2 weeks observation, read-out: LD50 (95% confidence limits)
Method: (§1) The acute toxicity of compound (I) salt was evaluated using ICR mice and F344 rats.
(§2) compound (I) was dissolved in dimethylsulfoxide, and the same amount of Macrogol 400 (trade name) was added, and then distilled water for injection was added thereto to provide a solution of predetermined concentration. The solution was injected once each test, intravenously or subcutaneously, at a rate of 10-20 ml/kg, the maximum concentration of the administered solution being 12 mg/ml and 25 mg/ml respectively. The animals were kept under observation for 2 weeks. LD₅₀ values were determined by the up and down method (Probit method) using 5 animals.

[5] = Acute toxicity test in mice; conditions: mouse, in vivo, single dose, 2 weeks observation, read-out: LD50 (95% confidence limits)
Method: as §1, §2

## CCOc1ccccc1OCCNC(C)Cc1ccc(OC)c(S(N)(=O)=O)c1 (stereo not drawn) [Compound (I), 5-[2-[2-(2-ethoxyphenoxy)ethylamino]-2-methylethyl] -2-methoxybenzene sulfonamide]
[1]
  inhibition at 0.1 µM: 100%
[2]; antagonist dose 10^-8 M, at 165 min, noradrenaline 10^-6 to 10^-8 M
  full response seen (contractile response to noradrenaline): At 165 min 60% of full response seen
[3]
  Effect on penis erection (tumescence) and firmness (rigidity): excellent effects of potent penis erection, tumescence and rigidity with long lasting action
[4]; iv, intravenous, Female
  LD50 at 336 h: 78 mg/kg
[4]; iv, intravenous, Male
  LD50 at 336 h: 70 mg/kg
[4]; sc, subcutaneous, Female
  LD50 at 336 h: 347 mg/kg
[4]; sc, subcutaneous, Male
  LD50 at 336 h: 395 mg/kg
[5]; iv, Female
  LD50 at 336 h: 103 mg/kg
[5]; iv, Male
  LD50 at 336 h: 98 mg/kg
[5]; sc, subcutaneous, Female
  LD50 at 336 h: 275 mg/kg
[5]; sc, subcutaneous, Male
  LD50 at 336 h: 254 mg/kg

## COc1ccc(Cc2nccc3cc(OC)c(OC)cc23)cc1OC [Papaverine]
[2]; antagonist dose 2 x 10^-4 M
  Time until prior response restored: 45 min

## COc1cc2nc(N3CCN(C(=O)c4ccco4)CC3)nc(N)c2cc1OC [Prazocin]
[2]; antagonist dose 10^-6 M
  Time until prior response restored: 160 min

## Cc1ccc(N(CC2=NCCN2)c2cccc(O)c2)cc1 [Phentolamine]
[2]; antagonist dose 7 x 10^-7 M
  Time until prior response restored: 150 min

## vasoactive intestinal peptide (HSDAVFTDNYTRLRKQMAVKKYLNSILN; ends and bridges not checked; UniProt P01282 125-152, looked up) [VIP (vasoactive intestinal peptide)]
[2]; antagonist dose 10^-7 M
  Time until prior response restored: 45 min
